Test results reported in patent US5089515A, “Lipid-peroxide formation inhibiting composition and novel compounds useful therefor” (priority 1986, dated 1992).
“Also recorded” adds a separate entry of the source.

Test system: lipid-peroxide formation in cerebral homogenate
Assay: Lipid-peroxide formation inhibiting activity (TBA method, cerebral homogenate)
Assay type: biochemical, Wistar strain male rat
Settings: at 100 μM; rat cerebral homogenate, 30 minutes at 37° C
Experimental: (1) Lipid-peroxide formation inhibiting activity
(a) Preparation of cerebral homogenate
[…]. Then, cerebral irrigation was made with ice-cold physiological saline solution buffered with 50 mM phosphoric acid (pH value of 7.4, hereinafter referred to as "PBS"), and the whole brain was extracted. After removing the cerebellum, the cerebrum was weighed in the wet state, added with PBS of 9 times the weight and homogenized in ice-cold water with a teflon homogenizer. The cerebral homogenate was centrifuged at […] and 2200 rpm for 10 minutes, and 0.3 ml of the supernatant was partitioned into a ground stoppered light-resistant test tube to prepare a cerebral homogenate to be used for drug evaluation.
(b) Evaluation of test drug
The cerebral homogenate which was prepared by the above procedure (a) was added with 0.6 ml of PBS and 10 μl of ethanol solution which contained the test drug of […] in final concentration and incubated for 30 minutes in a water bath at 37° C. Then, the mixture was added with 200 μl of aqueous 35% solution of perchloric acid and centrifuged at 4° C and 2,600 rpm for 10 minutes to collect the supernatant.
In addition, 10 μl of ethanol (blank) was added instead of the test drug.
(c) Determination of lipid peroxide
The supernatant of 0.1 ml which was obtained in the above procedure (b) was added with 0.2 ml of aqueous 8.1% sodium dodecyl sulfate solution, 1.5 ml of 20% acetic acid buffer solution (pH of 3.5), 1.5 ml of 0.67% 2-thiobarbituric acid solution and 0.7 ml of distilled water and mixed. The mixed solution was heated for 60 minutes in boiling water bath, quenched with ice-cold water and added with 1.0 ml of distilled water and 5.0 ml of a mixture solution of pyridine and butanol (1:15). After 30 seconds of shaking, the mixed solution was centrifuged at 3,000 rpm for 10 minutes, and the supernatant was collected as the sample for lipid peroxide measurement.
In addition, 0.1 ml of Lipoperoxide-test reagent (Wako Pure Chemicals Co., Ltd.: 1,1,3,3-tetraethoxypropane is contained by […]) was added instead of the cerebral homogenate obtained in the above procedure (b) to prepare the reference solution
The amount of lipid peroxide was measured at a excitation wavelength of 515 nm and a fluorescence wavelength of 550 nm using a fluoro-spectrophotometer (Model 204, made by Hitachi, Ltd.) and calculated by the following formula: [formula] where, F=fluorescence intensity of the reference solution
f=fluorescence intensity of the test drug.
Then, the inhibition rates of the test drugs at each concentration were obtained for the TBA value of the blank under (b) above and IC value were calculated by the method of least square means.
In the case of O=C1CC(c2cccnc2)=NN1c1ccccn1 [compound 12], the “Percent inhibition at 100 μM” value is reported as 43.2%. For O=C(O)c1ccc(N2N=C(Cc3cccnc3)CC2=O)cc1 [compound 29], the “Percent inhibition at 100 μM” value was 17.6%. For CCC1C(=O)N(C2CCCCC2)N=C1c1cccnc1 (stereo not shown) [compound 21], the “Percent inhibition at 100 μM” value was 1.0%. With O=C(O)c1ccc(N2N=C(Cn3ccnc3)CC2=O)cc1 [Compound No. 49] the “Percent inhibition at 100 μM” value was 12.9%. In the case of O=C(O)Cc1ccc(N2N=C(c3cccnc3)CC2=O)cc1 [Compound No. 9, 4-[3-(3-pyridyl)-5-oxo-2-pyrazolin-1-il] phenylacetic acid], the “Percent inhibition at 100 μM” value is reported as 2.6%. For CC(C)C1C(=O)N(c2ccccc2)N=C1Cn1ccnc1 (stereo not shown) [compound 55], the “Percent inhibition at 100 μM” value was 27.3%. With COc1ccc(N2N=C(Cn3ccnc3)CC2=O)cc1 [compound 43] the “Percent inhibition at 100 μM” value was 30.2%. With CCC1C(=O)N(c2ccccc2)N=C1Cn1ccnc1 (stereo not shown) [compound 52] the “Percent inhibition at 100 μM” value was 4.3%. For O=C1CC(Cn2ccnc2)=NN1C1CCCCC1 [compound 40], the “Percent inhibition at 100 μM” value was 39.4%. With O=C(O)c1ccc(N2N=C(c3cccnc3)CC2=O)cc1 [compound 7] the “Percent inhibition at 100 μM” value was 1.9%. In the case of CCCC1C(=O)N(C2CCCCC2)N=C1c1cccnc1 (stereo not shown) [compound 23], the “Percent inhibition at 100 μM” value is reported as 46.1%.

Same assay, conditions: rat cerebral homogenate, incubated 30 minutes at 37° C
CCC1C(=O)N(c2ccc(C)cc2)N=C1Cn1ccnc1 (stereo not shown) [compound 53] showed an IC50 of 38.2 µM. Compound CCC1C(=O)N(c2ccccc2)N=C1c1cccnc1 (stereo not shown) [compound 20] has an IC50 of 29.4 µM. In the case of CCOC(=O)c1ccc(N2N=C(Cn3ccnc3)CC2=O)cc1 [compound 47], the IC50 is reported as 35.1 µM. In the case of Cc1cccc(N2N=C(Cn3ccnc3)CC2=O)c1 [compound 41], the IC50 is reported as 60 µM. COc1ccc(N2N=C(c3cccnc3)C(C)C2=O)cc1 (stereo not shown) [compound 16] gave an IC50 of 46.3 µM. In the case of O=C1CC(Cn2ccnc2)=NN1c1ccccc1 [compound 38], the IC50 is reported as 60.1 µM. With CCc1ccc(N2N=C(c3cccnc3)CC2=O)cc1 [compound 3] the IC50 was 4 µM. O=C1CC(c2cccnc2)=NN1C1CCCCC1 [compound 11] showed an IC50 of 16.9 µM. With O=C1CC(c2ccco2)=NN1c1ccc(Cl)cc1 [compound 35] the IC50 was 3.7 µM. Compound CCOc1ccc(N2N=C(c3cccnc3)CC2=O)cc1 [Compound No. 5] has an IC50 of 12.9 µM. With O=C1CC(Cc2cccnc2)=NN1C1CCCCC1 [compound 30] the IC50 was 24 µM. For O=C1CC(c2cccnc2)=NN1c1nc2ccccc2s1 [compound 13], the IC50 was 84.1 µM. O=C1CC(c2cccnc2)=NN1c1ccc(Cl)cc1 [compound 6] showed an IC50 of 4.3 µM. Compound CCOc1ccc(N2N=C(Cc3cccnc3)CC2=O)cc1 [compound 27] has an IC50 of 12.2 µM. With O=C1CC(Cn2ccnc2)=NN1c1ccccn1 [compound 51] the IC50 was 51.3 µM. For O=C1CC(c2ccco2)=NN1c1ccccc1 [compound 32], the IC50 was 4.3 µM. With CCc1ccc(N2N=C(Cn3ccnc3)CC2=O)cc1 [compound 42] the IC50 was 24.4 µM. Compound CC1C(=O)N(C2CCCCC2)N=C1c1cccnc1 (stereo not shown) [compound 18] has an IC50 of 29.3 µM. Compound O=C1CC(Cc2cccnc2)=NN1c1ccccc1 [compound 24] has an IC50 of 16.4 µM. Compound O=C1CC(c2ccco2)=NN1C1CCCCC1 [compound 36] has an IC50 of 8.3 µM. Compound O=C1CC(Cc2cccnc2)=NN1c1ccc(Cl)cc1 [compound 28] has an IC50 of 4.1 µM. CC1C(=O)N(c2ccc(Cl)cc2)N=C1c1cccnc1 (stereo not shown) [compound 17] gave an IC50 of 7.1 µM. Compound Cc1ccc(N2N=C(c3ccco3)CC2=O)cc1 [compound 33] has an IC50 of 4.1 µM. In the case of CCC1C(=O)N(c2ccc(Cl)cc2)N=C1Cn1ccnc1 (stereo not shown) [compound 54], the IC50 is reported as 37.8 µM. For O=C1CC(c2cccnc2)=NN1c1ccc(O)cc1 [Compound No. 10, 1-(4-hydroxyphenyl)-3-(3-pyridyl)-2-pyrazolin-5-one], the IC50 was 102 µM. For O=C1CC(c2ccco2)=NN1c1ccccn1 [compound 37], the IC50 was 15.4 µM. In the case of Cc1ccc(N2N=C(Cc3cccnc3)CC2=O)cc1 [compound 25], the IC50 is reported as 7.4 µM. Work on CCOC(=O)Cc1ccc(N2N=C(Cn3ccnc3)CC2=O)cc1 [compound 46] yielded an IC50 of 60.5 µM. Work on CC1C(=O)N(c2ccccc2)N=C1c1cccnc1 (stereo not shown) [compound 14] yielded an IC50 of 38.9 µM. For O=C1CC(c2cccnc2)=NN1c1ccccc1 [Compound No. 1, 1-phenyl-3-(3-pyridyl)-2-pyrazolin-5-one], the IC50 was 23.6 µM. In the case of CCCC1C(=O)N(c2ccccc2)N=C1c1cccnc1 (stereo not shown) [compound 22], the IC50 is reported as 28.2 µM. With O=C1CC(Cn2ccnc2)=NN1c1ccc(Cl)cc1 [compound 44] the IC50 was 22.7 µM. Work on COc1ccc(N2N=C(c3cccnc3)CC2=O)cc1 [Compound No. 4] yielded an IC50 of 37 µM. Compound O=C1CC(Cn2ccnc2)=NN1c1ccc(Cl)c(Cl)c1 [compound 45] has an IC50 of 11 µM. In the case of Cc1ccc(N2N=C(c3cccnc3)C(C)C2=O)cc1 (stereo not shown) [compound 15], the IC50 is reported as 12.5 µM. With O=C1CC(Cc2cccnc2)=NN1c1ccccn1 [compound 31] the IC50 was 6.2 µM. In the case of COc1ccc(N2N=C(c3ccco3)CC2=O)cc1 [compound 34], the IC50 is reported as 6.5 µM. COc1ccc(N2N=C(Cc3cccnc3)CC2=O)cc1 [compound 26] showed an IC50 of 23.6 µM. Work on Cc1ccc(N2N=C(c3cccnc3)CC2=O)cc1 [compound 2] yielded an IC50 of 10.3 µM. In the case of CCOC(=O)Cc1ccc(N2N=C(c3cccnc3)CC2=O)cc1 [compound 8], the IC50 is reported as 13.6 µM. In the case of Cc1ccc(N2N=C(Cn3ccnc3)CC2=O)cc1 [compound 39], the IC50 is reported as 43 µM. CC1C(=O)N(c2ccccn2)N=C1c1cccnc1 (stereo not shown) [compound 19] gave an IC50 of 12.3 µM.

Test system: cerebral ischemia model
Assay: Cerebral protective activity in cerebral ischemia model
Assay type: in vivo, Wistar-strain male rat
Settings: 10 mg/kg into the duodenum, 30 minutes before 10 minutes ischemia; after release of ischemia
Experimental: (2) Cerebral protective activity in cerebral ischemia model
A Wistar-strain male rat weighing about 400 g was intramuscularly dosed with 0.6 mg of d-tubocurarine to immobilize. After inserting a trachea cannula, the head was fixed to the stereofaxic apparatus under artificial respiration. After incising the head skin and drilling the cranial bone, an electrode for recording electroencephalogram was placed on the surface of the left frontal cortex. After fixing the electrode to the cranial bone using dental cement, the rat was supported in the rear position. Then, a cannula for measuring the blood pressure was intubated to the left femoral artery and another cannula for additionally dosing d-tubocurarine was also intubated to the left femoral vein. The heart rate was measured by a cardiotachometer triggered by pulse pressure.
After reaching the stable state of several parameters including blood pressure, heart rate and electroencephalogram, the effective ingredient of the present invention which was previously prepared so as to form suspension of 1 ml/kg with 1% tragacanth gum solution was directly dosed into the duodenum in a dose of 10 mg/kg at 30 minutes before cerebral ischemia loading. The control group were dosed by the same volume of 1% tragacanth gum solution only.
The blood pressure, heart rate and electroencephalogram were monitored 10 to 20 minutes after drug dosing with the multipurpose polygraph (Model RM-85, made by Nihon Kohden Co., Ltd.), and operation was made according to the following procedure:
Firstly, the ribs were freed from the left costal cartilage and the chest was opened. Then, 30 minutes after drug dosing, the left common carotid artery, left vertebral artery and brachiocephalic artery were simultaneously plugged at the origin of the arteries with artery clips to stop the blood flow into the brain for 10 minutes.
The resumption of blood flow into the brain was conducted by simultaneously releasing the artery clips which were attached to said positions.
The cerebral protective activity of the drug against the disturbance after the release of cerebral ischemic load was investigated by the restoration of electroencephalogram.
During the experiment, the rectal temperature was maintained at 37-38° C. with a heating pad and continuously recorded on the recorder along with electroencephalogram, femoral blood pressure and heart rate.
In the case of O=C1CC(Cc2cccnc2)=NN1c1ccccc1 [compound 24], the restoration of electroencephalogram is reported as “the electroencephalogram appeared with restoration during the releasing”. For O=C1CC(c2cccnc2)=NN1c1ccccc1 [Compound No. 1, 1-phenyl-3-(3-pyridyl)-2-pyrazolin-5-one], the restoration of electroencephalogram was “the electroencephalogram appeared with restoration during the releasing”.

Same assay, conditions: 10 mg/kg into the duodenum; after release of ischemia
In the case of O=C1CC(Cc2cccnc2)=NN1c1ccccc1 [compound 24], the “function of the pulsation system” value is reported as “the function of the pulsation system was activated and normalized”. For O=C1CC(c2cccnc2)=NN1c1ccccc1 [Compound No. 1, 1-phenyl-3-(3-pyridyl)-2-pyrazolin-5-one], the “function of the pulsation system” value was “the function of the pulsation system was activated and normalized”.

Same assay, conditions: 10 mg/kg into the duodenum; control died 75 minutes in average from blood reflow
With O=C1CC(Cc2cccnc2)=NN1c1ccccc1 [compound 24] the “survival period of time” value was “the survival period of time of the animals of the group was clearly extended”. For O=C1CC(c2cccnc2)=NN1c1ccccc1 [Compound No. 1, 1-phenyl-3-(3-pyridyl)-2-pyrazolin-5-one], the “survival period of time” value was “the survival period of time of the animals of the group was clearly extended”.

Test system: not given
Assay: not given
Settings: cited from earlier work
For COC1=C(OC)C(=O)C(CCCCCCCCCCO)=C(C)C1=O [Idebenon], the solubility in water is listed as “difficult to dissolve in water”.

Test system: central nervous system
Assay: not given
Settings: IYAKUHIN KENKYU, 16, 1 (1985); cited from earlier work
For CCN(CC)Cc1nccn1-c1ccc([N+](=O)[O-])cc1C(=O)c1ccccc1Cl [nizofenone], the “depressing the central nervous system” value is listed as “defective in depressing the central nervous system”.

Test system: lipid peroxidation due to active oxygen species
Assay: not given
Settings: prior art; cited from earlier work
In the case of CCN(CC)Cc1nccn1-c1ccc([N+](=O)[O-])cc1C(=O)c1ccccc1Cl [nizofenone], the “inhibition of lipid peroxidation” value is listed as “known to inhibit lipid peroxidation due to active oxygen species”. In the case of vitamin E, the “inhibition of lipid peroxidation” value is given as “known to inhibit lipid peroxidation due to active oxygen species; also recorded: not sufficient to inhibiting lipid peroxidation”. In the case of COC1=C(OC)C(=O)C(CCCCCCCCCCO)=C(C)C1=O [Idebenon], the “inhibition of lipid peroxidation” value is given as “known to inhibit lipid peroxidation due to active oxygen species”.
